# Laboratory results taken from ChEMBL document CHEMBL1201862, “PubChem BioAssay data set” (2004).
#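 1) Cells in 96-well plates. 2) Compound, 48 h, 5 concentrations. 3) Linear interpolation between surrounding doses. 4) Unreached endpoint = highest concentration. At the GI50, growth is halved.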 Activity calls are given as the source filed them. Cut-off read from the data, not from the text of the source: active = GI50 up to about 1.1 µM and inactive = higher.
# How the values were obtained:
# Assay in all cases: NCI tumour cell line growth inhibition, 48 h
# [1] = tested on: CAKI-1
# [2] = tested on: EKVX
# [3] = tested on: HCT-116
# [4] = tested on: IGROV-1
# [5] = tested on: KM12
# [6] = tested on: LOX IMVI
# [7] = tested on: NCI-H23
# [8] = tested on: SF-295
# [9] = tested on: SK-MEL-2
# [10] = tested on: SK-MEL-5
# [11] = tested on: SNB-19
# [12] = tested on: SNB-75
# [13] = tested on: U-251
# [14] = tested on: XF498
# [15] = tested on: HCC 2998
# [16] = tested on: SR
# [17] = tested on: DU-145
# [18] = tested on: MCF7
# [19] = tested on: MDA-MB-435
# [20] = tested on: PC-3
SMILES,GI50 [1],GI50 [2],GI50 [3],GI50 [4],GI50 [5],GI50 [6],GI50 [7],GI50 [8],GI50 [9],GI50 [10],GI50 [11],GI50 [12],GI50 [13],GI50 [14],GI50 [15],GI50 [16],GI50 [17],GI50 [18],GI50 [19],GI50 [20]
CCCN1CN(C(C(=O)N[C@@H]2C(=O)N3C2SC(C)(C)C3C(=O)O)c2ccccc2)CSC1=S (stereo not given in full),> 100 µM (inactive),> 100 µM (inactive),57.1 µM (inactive),> 100 µM (inactive),> 100 µM (inactive),50.9 µM (inactive),> 100 µM (inactive),> 100 µM (inactive),> 100 µM (inactive),> 100 µM (inactive),> 100 µM (inactive),> 100 µM (inactive),> 100 µM (inactive),> 100 µM (inactive),,,,,,
O=C1CC2(C[C@@H]3CCCCCCCCC[C@@H](C3)C2)N1 (stereo not given in full),12.6 µM (inactive),14.4 µM (inactive),19.5 µM (inactive),12.9 µM (inactive),17.8 µM (inactive),,16.7 µM (inactive),17 µM (inactive),19.8 µM (inactive),16.4 µM (inactive),20 µM (inactive),6.71 µM (inactive),16.6 µM (inactive),12.2 µM (inactive),12.2 µM (inactive),10.8 µM (inactive),,,,
COc1nc2nccc-2c2occn12,> 100 µM (inactive),> 100 µM (inactive),> 100 µM (inactive),> 100 µM (inactive),> 100 µM (inactive),> 100 µM (inactive),> 100 µM (inactive),> 100 µM (inactive),> 100 µM (inactive),> 100 µM (inactive),> 100 µM (inactive),> 100 µM (inactive),> 100 µM (inactive),> 100 µM (inactive),> 100 µM (inactive),,,,,
CCSCCCCC(c1ccc(O)cc1)C(C)(CC)c1ccc(O)cc1 (stereo not given),35 µM (inactive),29.6 µM (inactive),17.9 µM (inactive),16.9 µM (inactive),21.6 µM (inactive),17.6 µM (inactive),19.6 µM (inactive),31.3 µM (inactive),16 µM (inactive),18.2 µM (inactive),24.5 µM (inactive),> 100 µM (inactive),16.4 µM (inactive),,15.3 µM (inactive),38.7 µM (inactive),> 100 µM (inactive),27.4 µM (inactive),18.2 µM (inactive),20.3 µM (inactive)
CCOC(=O)N[C@@H]1C(CC(=O)OC)O[C@H]2OC(C)(C)O[C@H]21 (stereo not given in full),> 100 µM (inactive),,,> 100 µM (inactive),> 100 µM (inactive),> 100 µM (inactive),> 100 µM (inactive),> 100 µM (inactive),> 100 µM (inactive),> 100 µM (inactive),,> 100 µM (inactive),> 100 µM (inactive),> 100 µM (inactive),> 100 µM (inactive),,,,,
CC(=O)O[C@H]1C[C@H]2[C@@H]([C@H](OC(C)=O)C[C@@H]3CC4(CC[C@@]32C)OOC2(CCCCC2)OO4)[C@@H]2CC[C@H]([C@H](C)CCC(N)=O)[C@@]12C,0.63 µM (active),1.49 µM (inactive),3.13 µM (inactive),0.134 µM (active),1.71 µM (inactive),1 µM (active),1 µM (active),3.67 µM (inactive),1.78 µM (inactive),2.15 µM (inactive),5.85 µM (inactive),2.28 µM (inactive),1.51 µM (inactive),,3.63 µM (inactive),0.0787 µM (active),1.93 µM (inactive),2.61 µM (inactive),1.65 µM (inactive),1.62 µM (inactive)
COc1ccc2cc3[n+](cc2c1O)CCc1cc2c(cc1-3)OCO2 [BERBERRUBINE CHLORIDE],,> 100 µM (inactive),83 µM (inactive),> 100 µM (inactive),> 100 µM (inactive),40.4 µM (inactive),70 µM (inactive),> 100 µM (inactive),> 100 µM (inactive),,> 100 µM (inactive),> 100 µM (inactive),> 100 µM (inactive),> 100 µM (inactive),> 100 µM (inactive),,,,,
C=C1C(=O)O[C@@H]2C[C@@]3(C)CCC[C@H](C)C3=C[C@H]12 [HELENINE],5.33 µM (inactive),15 µM (inactive),4.45 µM (inactive),16.1 µM (inactive),12 µM (inactive),10.5 µM (inactive),4.94 µM (inactive),17.5 µM (inactive),3.24 µM (inactive),4.8 µM (inactive),16.5 µM (inactive),3.46 µM (inactive),9.86 µM (inactive),,15.7 µM (inactive),1.19 µM (inactive),12 µM (inactive),4.58 µM (inactive),5.08 µM (inactive),11.6 µM (inactive)
COc1ccc(/C=C/c2cc(OC)cc(=O)o2)cc1 [YANGONIN],> 100 µM (inactive),> 100 µM (inactive),77.6 µM (inactive),> 100 µM (inactive),57.4 µM (inactive),> 100 µM (inactive),51.8 µM (inactive),37.2 µM (inactive),72.1 µM (inactive),> 100 µM (inactive),50.4 µM (inactive),20 µM (inactive),27.1 µM (inactive),,> 100 µM (inactive),> 100 µM (inactive),95.9 µM (inactive),> 100 µM (inactive),> 100 µM (inactive),> 100 µM (inactive)
